Drawing on PubChem BioAssay (NCI), this text covers TGI for 10 compounds.

Common to all, as to assay: DTP human tumour cell line panel, 48 h
The subject of test [1] is 786-0 renal.
Test [2] deals with A498 renal.
Test [3] has as its system CAKI-1 renal.
Test [4] deals with HT29 colon.
Test [5] relates to IGROV1 ovarian.
Test [6] deals with M14 melanoma.
Test [7] relates to MDA-MB-435.
Test [8] relates to NCI-H460 lung.
The test system of test [9] is OVCAR-8 ovarian.
Test [10] deals with RPMI-8226 leukemia.
Test [11] has as its system SF-539 CNS.
Test [12] deals with SNB-75 CNS.
The test system of test [13] is SW-620 colon.
For test [14], the system named is TK-10 renal.

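Five compound concentrations were applied to cells in 96-well plates for 48 hours; endpoints were derived by simple linear interpolation of the resulting dose-response curve. Definition used: TGI = concentration required for complete inhibition of growth.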

As usually defined, the TGI is the concentration giving total growth inhibition. Read a high TGI as lower sensitivity of the cells. For the compound `CCSc1c2cc(OC)ccc2nc2ccc(OC)cc12`, the TGI is greater than 61 µM in test [1]; 30 µM in test [2]; 45.4 µM in test [3]; 98 µM in test [4]; greater than 55 µM in [5]; 33.3 µM in [6]. Further, the TGI in [7] is greater than 57.7 µM; in [8], 60.4 µM; in test [9] it was greater than 59.2 µM; in test [10] it was 22.2 µM; in test [11], greater than 100 µM; in [12] it was 40.3 µM. Moreover, the TGI was greater than 100 µM in test [13] and greater than 43.7 µM in test [14].

For `O=C(c1ccsc1)c1nccc2c1cnc1ccccc12`, the TGI was greater than 100 µM in test [1]; greater than 100 µM in test [2]; greater than 100 µM in test [3]; greater than 100 µM in test [4]; 17.1 µM in test [5]; greater than 100 µM in [6]. In addition, the TGI is greater than 100 µM in test [7]; greater than 100 µM in [8]; greater than 100 µM in test [9]; greater than 100 µM in [10]; greater than 100 µM in [11]; 88.2 µM in [12]. The TGI in test [13] and in test [14] was greater than 100 µM each time.

With `Cc1ccc2c(n1)C(=O)c1cc(C)c(C)cc1C2=O`, the total growth inhibition concentration (TGI) in test [1], in [2], in test [3], in [4], in test [5] and in test [6] was greater than 100 µM each time. Moreover, the TGI in [7] was greater than 100 µM; in test [8], greater than 100 µM; in test [9] it was greater than 100 µM; in test [10], greater than 100 µM; in test [11] it was greater than 100 µM; in test [12] it was 73 µM. For the same compound, the TGI in [13] and in test [14] was greater than 100 µM in each case.

For `COc1ccc(C(=O)c2[nH]c(Nc3cc(C)ccn3)c(C(=S)Nc3ccccc3)c2N)cc1`, the TGI in [1] was 49.7 µM; in [2], 33.1 µM; in test [3] it was greater than 100 µM; in [4], 39.4 µM; in test [5] it was 42 µM; in test [6] it was 42.5 µM. Moreover, the TGI in test [7] amounted to 59.6 µM; in test [8], 31.5 µM; in test [9] it was 52.4 µM; in test [10], 37.3 µM; in [11] it was 35.8 µM; in [12], 50.9 µM. Moreover, the TGI in test [13] is 71 µM; in test [14], 61.5 µM.

With `CC1=CC(=O)c2ccc3c4ccccc4n(C)c3c2C1=O`, the TGI in [1] is greater than 100 µM; in test [2] it was greater than 100 µM; in test [3], greater than 67.5 µM; in [4] it was greater than 31.6 µM; in test [5], greater than 100 µM; in [6], 64.4 µM. The total growth inhibition concentration (TGI) is 33.4 µM in test [7]; greater than 100 µM in [8]; greater than 100 µM in test [9]; greater than 100 µM in [10]; greater than 100 µM in test [11]; greater than 100 µM in [12]. Moreover, the TGI in test [13] and in [14] was greater than 100 µM throughout.

Regarding `c1ccc([P+](Cc2ccc(C[P+](c3ccccc3)(c3ccccc3)c3ccccc3)s2)(c2ccccc2)c2ccccc2)cc1`, the TGI in test [1], in test [2], in test [3], in test [4], in test [5] and in [6] was greater than 100 µM in each case. Moreover, the concentration for total growth inhibition (TGI) in [7], in [8], in [9], in test [10], in [11] and in test [12] was greater than 100 µM throughout. In addition, the concentration for total growth inhibition (TGI) in [13] and in test [14] was greater than 100 µM throughout.

Take `CCN1C(c2ccccc2)=CC(c2ccccc2)(C(Cl)(Cl)Cl)C=C1c1ccccc1`: the TGI in test [1] was greater than 100 µM; in [2] it was 54.4 µM; in test [3], greater than 100 µM; in [4] it was 21.8 µM; in test [5], 27.9 µM; in test [6] it was 26.4 µM. Besides, the TGI was 9.51 µM in test [7]; 23.3 µM in [8]; greater than 100 µM in [9]; greater than 100 µM in [10]; 37 µM in test [11]; greater than 100 µM in [12]. For the same compound, the TGI in test [13] and in test [14] was greater than 100 µM in each case.

As to `CCCCCCCCCCCCCCCCNc1nc(=O)n(C2CC(O)C(COP(=O)(O)OC3CC(n4cc(F)c(=O)[nH]c4=O)OC3CO)O2)cc1F` (stereo not given), the TGI is greater than 100 µM in test [1]; greater than 89.6 µM in test [2]; greater than 100 µM in test [3]; 26.5 µM in [4]; greater than 59.9 µM in [5]; 16.5 µM in test [6]. Besides, the total growth inhibition concentration (TGI) is greater than 100 µM in [7]; 22.6 µM in test [8]; 44.2 µM in [9]; 25.5 µM in test [10]; 0.956 µM in test [11]; greater than 68.8 µM in test [12]. The TGI in [13] and in test [14] was greater than 100 µM throughout.

On to `COc1ccc2c(c1)C1Oc3ccccc3CC1CO2` (stereo not given), for which the TGI in test [1] is greater than 100 µM; in [2], 96.2 µM; in test [3] it was greater than 100 µM; in test [4] it was greater than 100 µM; in [5], greater than 100 µM; in test [6], greater than 100 µM. Moreover, the TGI in test [7] was greater than 100 µM; in [8], greater than 100 µM; in test [9], greater than 100 µM; in [10], 65.4 µM; in [11], greater than 100 µM; in test [12] it was 98.7 µM. Further, the TGI in test [13] and in [14] was greater than 100 µM in each case.

Take `CC1=NN(c2nc(N)nc(CCl)n2)C(C)(C)C1`: the TGI in test [1] was 15.9 µM; in test [2], greater than 84.4 µM; in test [3], 9.27 µM; in test [4], greater than 92.7 µM; in [5], 20.5 µM; in test [6] it was greater than 75.4 µM. The TGI was greater than 100 µM in [7]; 36.2 µM in test [8]; greater than 55.5 µM in test [9]; greater than 100 µM in [10]; 34 µM in test [11]; greater than 75.6 µM in test [12]. In addition, the TGI was greater than 60.2 µM in test [13] and greater than 100 µM in test [14].
